This is an account of results in PMC7067379, “Mapping the S1 and S1’ subsites of cysteine proteases with new dipeptidyl nitrile inhibitors as trypanocidal agents” (PLoS Neglected Tropical Diseases, 2020).

Structures are written as SMILES. Like-named read-outs stand apart in the source and are kept apart here.

Data set [1] relates to T. cruzi Tulahuen LacZ strain, intracellular amastigote forms. Description: In vitro trypanocidal activity on intracellular amastigote forms (Tulahuen strain). In kind it is cell-based, Trypanosoma cruzi. The note with it: for SI (selective index): from EC50 (T. cruzi) and CC50 (LLCMK2). How it is done: Cells were evaluated in 96-well plates. Cells from the LLCMK2 lineage were plated at a concentration of 5x10^4 cells mL^-1. Trypomastigote forms of the Tulahuen LacZ strain were added at a concentration of 5×10^5 parasites mL^-1 and placed in the incubator at 37°C with 5% CO2 for 24 h. After the incubation period, the trypomastigote forms present were removed by successive washes with PBS, remaining only as intracellular amastigote forms. Compounds were added at different concentrations (1.95 μM to 250 μM serial dilutions) and incubated for 72 h. At the end of this period, the substrate CPRG (chlorophenol red β-D-galactopyranoside, 400 μM in 0.3% Triton X-100, pH 7.4) was added. […] Benznidazole was used as a positive control in the same concentrations as the substances, and DMSO as a negative control. Compounds were solubilized in DMSO. The selectivity index (SI) was calculated using the formula: […]. All statistical analyses were done with the program GraphPad Prism v.5.

A short description of data set [2]: Mammalian cytotoxicity assay (MTT).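 Also: Read-out is absorbance at 570 nm of formazan taken up in DMSO.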 The data set is classed as cell-based. The note with it: rhesus monkey, LLCMK2 cells.
In the next data set the target is cathepsin S (CatS) (Homo sapiens, UniProt P25774). Description: Cathepsin S enzyme inhibition. The data set is classed as biochemical. The note with it: SD lower than 15%; read-out: pKi CatS (converted). The procedure:
(§1) Enzyme inhibition studies for Cz and LmCPB were performed as previously described for Cz. The experimental procedures are described in the Supporting Information (see chapter S3). Cathepsins B, L, S were assayed as reported.

The target in another data set is cathepsin L (CatL) (Homo sapiens, UniProt P07711). In words: Cathepsin L enzyme inhibition. In kind it is biochemical. The note with it: SD lower than 15%; for Ki: read-out: pKi CatL (converted).
cathepsin L (CatL), sequence (P07711 114-333): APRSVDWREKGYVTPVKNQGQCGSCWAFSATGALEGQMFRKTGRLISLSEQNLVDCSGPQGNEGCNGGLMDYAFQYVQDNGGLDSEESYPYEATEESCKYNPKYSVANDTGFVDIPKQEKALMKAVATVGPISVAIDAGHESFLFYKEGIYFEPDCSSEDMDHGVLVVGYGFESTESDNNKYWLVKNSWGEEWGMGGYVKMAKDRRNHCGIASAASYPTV
In data set [3] the target is T1, Human recombinant cathepsin K (Homo sapiens, UniProt P43235).
T1 sequence (P43235 115-329): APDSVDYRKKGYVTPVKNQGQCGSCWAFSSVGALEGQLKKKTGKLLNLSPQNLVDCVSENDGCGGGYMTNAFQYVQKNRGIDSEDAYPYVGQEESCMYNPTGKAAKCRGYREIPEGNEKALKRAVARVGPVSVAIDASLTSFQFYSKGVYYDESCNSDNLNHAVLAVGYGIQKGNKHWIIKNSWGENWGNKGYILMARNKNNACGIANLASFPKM
Description: Cathepsin K assay. In kind it is biochemical. The note with it: SD lower than 15%; read-out: pKi CatK (converted). The procedure:
Human recombinant cathepsin K was assayed on a FLUOSTAR Optima plate reader at 25 °C with an excitation wavelength of 360 nm and an emission wavelength of 440 nm on a 96 well plate. The enzyme solution (23 μg/mL in 50 mM sodium acetate pH 5.5, 50 mM NaCl, 0.5 mM EDTA, 5 mM DTT) was diluted 1:100 with assay buffer (100 mM sodium citrate buffer pH 5.0, 100 mM NaCl, 1 mM EDTA, 0.01% CHAPS) containing 5 mM DTT and was then incubated at 37 °C for 30 min for activation. A 1.5 mM stock solution of the substrate Z-Leu-Arg-AMC was prepared in DMSO. […] The assay was performed with a final concentration of cathepsin K of 1.73 ng/mL. Stock solutions of inhibitors were prepared in DMSO. The final DMSO concentration was 2% (4 μL). Into a well containing 194.5 μL assay buffer, 0.8 μL of the fluorogenic substrate, DMSO and inhibitor solution (3.2 μL) were added. Upon addition of cathepsin K (1.5 μL), the measurement was started and followed for 20 min.

In data set [4] the target is Leishmania mexicana CPB (LmCPB) (Leishmania mexicana, UniProt P36400). In words: LmCPB enzyme inhibition. In kind it is biochemical. The procedure:
as §1

A further data set has as its target recombinant cruzain (Cz) (Trypanosoma cruzi, UniProt P25779). In words: Cruzain enzyme inhibition. In kind it is biochemical. The procedure: as §1
In another data set the target is cathepsin B (CatB) (Homo sapiens, UniProt P07858). Description: Cathepsin B enzyme inhibition. The note with it: for Ki: SD lower than 15%, read-out: pKi CatB (converted). In kind it is biochemical.
Where [5] appears, read: Trypanosoma cruzi, TULAHUEN, 72 h, amastigote, Tulahuen strain, 72 h, Table 2, read-out: EC50 trypanocidal activity.
The mark [6] stands for this setting: Trypanosoma cruzi, TULAHUEN, S1 Table, maximum concentration used 250 µM, read-out: EC50 T. cruzi.
[7] abbreviates: Trypanosoma cruzi, TULAHUEN, T. cruzi amastigote form, S1 Table, read-out: pEC50 (converted).
[8] abbreviates: LLCMK2, 72 h, MTT, Table 2, read-out: CC50 cytotoxicity.
Where [9] appears, read: Trypanosoma cruzi, TULAHUEN, read-out: EC50 T. cruzi, S1 Table, maximum concentration used 250 µM.
Where [10] appears, read: Trypanosoma cruzi, TULAHUEN, read-out: pEC50, T. cruzi amastigote form (converted), S1 Table.
The mark [11] stands for this setting: SD lower than 15%, read-out: pKi LmCPB (converted).
Setting [12] is: SD lower than 15%, read-out: pKi Cz (converted).
Setting [13] is: S1 Table, maximum concentration used 250 µM, read-out: CC50.

cathepsin S (CatS), sequence (P25774 115-331): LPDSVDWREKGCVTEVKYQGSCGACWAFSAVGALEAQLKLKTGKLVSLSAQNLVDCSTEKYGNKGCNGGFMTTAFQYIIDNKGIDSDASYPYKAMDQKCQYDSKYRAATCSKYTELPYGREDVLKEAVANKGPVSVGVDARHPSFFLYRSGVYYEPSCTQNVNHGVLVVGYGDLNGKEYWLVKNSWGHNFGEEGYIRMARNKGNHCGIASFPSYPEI
recombinant cruzain (Cz), sequence (P25779 123-337): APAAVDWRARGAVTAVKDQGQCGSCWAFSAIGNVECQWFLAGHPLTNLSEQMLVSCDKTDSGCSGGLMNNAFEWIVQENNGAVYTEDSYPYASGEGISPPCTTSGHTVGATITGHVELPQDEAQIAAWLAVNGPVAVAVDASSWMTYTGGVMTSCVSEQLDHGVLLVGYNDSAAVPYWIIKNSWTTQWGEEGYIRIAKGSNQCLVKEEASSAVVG
Leishmania mexicana CPB (LmCPB), sequence (P36400 126-443): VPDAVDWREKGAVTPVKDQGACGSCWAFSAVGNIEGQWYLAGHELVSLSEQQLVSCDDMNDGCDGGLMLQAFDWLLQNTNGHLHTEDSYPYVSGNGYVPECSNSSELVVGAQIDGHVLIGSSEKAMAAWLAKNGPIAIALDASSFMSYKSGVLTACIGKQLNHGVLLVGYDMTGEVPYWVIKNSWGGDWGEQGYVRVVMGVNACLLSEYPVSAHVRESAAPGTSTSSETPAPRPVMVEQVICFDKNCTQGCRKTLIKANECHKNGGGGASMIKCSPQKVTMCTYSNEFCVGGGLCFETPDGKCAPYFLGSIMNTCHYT

A word on the CC50: it is the concentration giving 50% cytotoxicity. As to `O=C(Cn1ccnc1[N+](=O)[O-])NCc1ccccc1` [Benznidazole, reference compound], the EC50 in data set [1] (setting [5]) was 4400 ± 470 nM; in data set [1] (setting [6]), 4300 nM; in data set [1] (setting [7]) it was 3980 nM. Also, in data set [1] (Table 2), the “SI (selective index)” value is recorded as > 23. Moreover, the CC50 at 72 h in data set [2] (setting [8]) is > 100000 nM.
As to `N#CC1(NC(=O)[C@H](Cc2ccccc2)NC(=O)c2ccccc2)CC1` [Compound 6], the EC50 in data set [1] (setting [9]) and in data set [1] (setting [10]) was > 100000 nM each time. For the same molecule, the Ki is 79.4 nM at cathepsin S (CatS), 398 nM in data set [3] and 251 nM in data set [4] (setting [11]). In addition, the “pKi CatL” value at cathepsin L (CatL) is recorded as 7.4.
Turning to `Cn1nc(C(C)(C)C)cc1C(=O)N[C@@H](Cc1ccccc1)C(=O)NC1(C#N)CC1` [Compound 9], the EC50 was 71800 nM in data set [1] (Trypanosoma cruzi, TULAHUEN, 72 h, read-out: EC50 trypanocidal activity, amastigote, Tulahuen strain, 72 h, Table 2); 79400 nM in data set [1] (setting [10]); 72000 ± 5700 nM in data set [1] (amastigote, Tulahuen strain, 72 h, Table 2, read-out: EC50 trypanocidal activity). Also, the “SI (selective index)” value in data set [1] (Table 2) is > 1.4. For the same molecule, the Ki on cathepsin S (CatS) was 158 nM; on recombinant cruzain (Cz) (setting [12]), 50.1 nM; at cathepsin L (CatL) it was 6.31 nM; in data set [3], 316 nM; in data set [4] (setting [11]) it was 79.4 nM; at cathepsin B (CatB), 15800 nM. In addition, the CC50 at 72 h in data set [2] (setting [8]) is > 100000 nM.
In general, remaining activity refers to the signal under treatment as a percentage of the control signal. High values mean much activity left, low ones little activity left. In the case of `Cn1nc(C(C)(C)C)cc1C(=O)N[C@@H](Cc1ccncc1)C(=O)NC1(C#N)CC1` [Compound 10, (S)-3-(tert-Butyl)-N-(1-((1-cyanocyclopropyl)amino)-1-oxo-3-(pyridin-4-yl)propan-2-yl)-1-methyl-1H-pyrazole-5-carboxamide], the EC50 in data set [1] (setting [5]) is 67600 ± 8220 nM; in data set [1] (setting [10]), 63100 nM. For the same molecule, in data set [1] (Table 2), the “SI (selective index)” value is > 1.5. The Ki was 2510 nM at cathepsin S (CatS); 251 nM on recombinant cruzain (Cz) (setting [12]); 25.1 nM on cathepsin L (CatL); 10000 nM in data set [3]; 398 nM in data set [4] (setting [11]). This molecule returned a remaining activity at 10 µM on cathepsin B (CatB) (10 μM, replicates = 2, n.i. = no inhibition observed at 10 μM) of 93%. The CC50 at 72 h in data set [2] (setting [8]) is > 100000 nM.
Regarding `CC(C)C[C@H](NC(=O)c1cc(C(C)(C)C)nn1C)C(=O)NC1(C#N)CC1` [Compound 11], the EC50 in data set [1] (setting [9]) and in data set [1] (setting [10]) was > 100000 nM each time. For the same molecule, the Ki at cathepsin S (CatS) was 39.8 nM; at recombinant cruzain (Cz) (setting [12]) it was 15.8 nM; on cathepsin L (CatL), 25.1 nM; in data set [3], 5.01 nM; in data set [4] (setting [11]), 50.1 nM; at cathepsin B (CatB), 31600 nM. The “difference in pKi, Cz” value on recombinant cruzain (Cz) (relative to compound 9, sign not given, direction by cell colour or wording) is recorded as 0.5. Further, the half-maximal cytotoxic concentration (CC50) at 72 h in data set [2] (setting [13]) is > 100000 nM.
In the case of `Cn1nc(C(C)(C)C)cc1C(=O)N[C@@H](Cc1ccccc1)C(=O)N[C@H](C#N)Cc1ccncc1` [Compound 55, 3-(tert-Butyl)-N-((S)-1-(((S)-1-cyano-2-(pyridin-4-yl)ethyl)amino)-1-oxo-3-phenylpropan-2-yl)-1-methyl-1H-pyrazole-5-carboxamide], the EC50 in data set [1] (setting [6]) and in data set [1] (setting [7]) was > 100000 nM throughout. For the same molecule, the Ki was 63.1 nM at cathepsin S (CatS); 31.6 nM at recombinant cruzain (Cz); 5.01 nM on cathepsin L (CatL); 316 nM in data set [3]; 63.1 nM in data set [4]; 15800 nM on cathepsin B (CatB). The CC50 at 72 h in data set [2] (setting [13]) is > 100000 nM.
As to `C[C@@H](OCc1ccccc1)[C@@H](C#N)NC(=O)[C@H](Cc1cccc(Cl)c1)NC(=O)c1cc(C(C)(C)C)nn1C` [Compound 60, N-((S)-1-(((1R,2R)-2-(Benzyloxy)-1-cyanopropyl)amino)-3-(3-chlorophenyl)-1-oxopropan-2-yl)-3-(tert-butyl)-1-methyl-1H-pyrazole-5-carboxamide], the EC50 in data set [1] (setting [5]) is 4900 ± 450 nM; in data set [1] (setting [7]) it was 5010 nM. In addition, in data set [1] (compared with compound 9), the “fold increase in trypanocidal potency” value came to 14.5 fold. For the same molecule, the “SI (selective index)” value in data set [1] (Table 2) is on record as > 20. The Ki at cathepsin S (CatS) is 316 nM; at recombinant cruzain (Cz) (setting [12]) it was 63.1 nM; on cathepsin L (CatL), 7.94 nM; in data set [3] it was 1000 nM; in data set [4] (setting [11]), 158 nM; on cathepsin B (CatB) it was 501 nM. Besides, the results for the CC50 at 72 h in data set [2] (setting [8]) and in data set [2] (setting [13]) were > 100000 nM and 125000 nM, respectively.
